Counter-ions that a name gives are not always drawn.
Row | Compound | melting point [°C]
1 | CNCc1ccc(C(F)(F)F)cc1Oc1ccc(Cl)c(Cl)c1 | 164 to 166
2 | CNCc1ccc(Cl)cc1Oc1ccc(Cl)c(Cl)c1 | 132 to 133
3 | CNC(C)c1cc(F)ccc1Oc1ccc(Cl)c(Cl)c1 (stereo not shown) | 127
4 | CC(=O)Nc1ccc(Oc2ccc(Cl)c(Cl)c2)c(CN(C)C)c1.Cl | 199 to 202
5 | Cl.Fc1ccc(Oc2ccc(Cl)c(Cl)c2)c(C2CCCN2)c1 (stereo not shown) | 171 to 173
6 | CN(C)Cc1cc(C(F)(F)F)ccc1Oc1ccc(Cl)c(Cl)c1.O=C(O)/C=C\C(=O)O | 127 to 128
7 | CNCc1cc(F)ccc1Oc1ccc(Cl)cc1 (as salt: HCl) | 208 to 209
8 | CC(c1ccccc1Oc1ccc(Cl)c(Cl)c1)N(C)C (stereo not shown) (as salt: HCl) | 130 to 133
9 | CNC(C)c1ccccc1Oc1ccc(Cl)cc1 (stereo not shown) (as salt: HCl) | 147 to 149
10 | CNCc1cc(OC)c(OC)cc1Oc1ccc(Cl)c(Cl)c1 (as salt: HCl) | 143 to 145
11 | CNCc1cc(Br)ccc1Oc1ccc(Cl)c(Cl)c1 (as salt: HCl) | 206 to 210
12 | CNCc1ccc(Br)cc1Oc1ccc(Cl)c(Cl)c1 (as salt: HCl) | 185 to 189
13 | Cc1ccc(Oc2ccc(Cl)c(Cl)c2)c(CN(C)C)c1 (as salt: HCl) | 196 to 198
14 | CNCc1cc(OC)ccc1Oc1ccc(Cl)c(Cl)c1 (as salt: HCl) (hydrate or solvate) | 140 to 141
15 | CN(C)Cc1cc(F)ccc1Oc1ccc(Cl)c(Cl)c1 (as salt: HCl) [Example 13, [2-(3,4-Dichlorophenoxy)-5-fluorobenzyl]-dimethylamine] | 174 to 175
16 | NCc1cc(F)ccc1Oc1ccc(Cl)c(Cl)c1 (as salt: hydrochloride) [Example 57, 2-(3,4-DICHLOROPHENOXY)-5-FLUORO-BENZYLAMINE] | 190 to 194
